Experimental data published in patent US11596620B2, “Formulations with reduced oxidation” (Genentech, Inc., priority 2013, dated 2023).

Legend:
mAb1 = experiment: Light stress of mAb1 formulation (eight hours at 250 W/m^2), papain digest RP-HPLC; type: physicochemical, human; conditions: mAb1 5 mg/mL, eight hours of light at 250 W/m^2
Description: L-tryptophan (L-Trp), an antioxidant used in protein formulations, has been recently shown to be photosensitive (Igarashi et al., Anal Sci 23(8):943-8 (2007)) and to have the ability to produce H2O2 upon light exposure. […] Control vials were wrapped in aluminum foil and treated similarly. After light exposure, solutions were prepared for analysis by reverse-phase HPLC. […] Following incubation, 900 μL of the solution was combined with 100 μL of 1 M dithiothreitol (DTT) and incubated for another thirty minutes at 37° C. Samples were then run on an Agilent, Inc. 1100/1200 HPLC system (Santa Clara, Calif.) equipped with UV detection at 280 nm in conjunction with a Varian, Inc. Pursuit 3 μm, 2 mm ID×250 mm diphenyl column (Palo Alto, Calif.). Mobile Phase A was 0.1% TFA in water. Mobile Phase B was 0.1% TFA in acetonitrile. The mobile phase gradient increased linearly from 34% B at 0 minutes to 43% B at 50.0 minutes, then to 95% B at 50.1 minutes. The gradient remained at 95% B until 60.1 minutes, and then decreased linearly from 95% B to 34% B between 60.1 and 60.2 minutes. The gradient remained at 34% B until the end of the cycle at 80.2 minutes. The column temperature was 65° C., total flow rate was 0.2 mL/min, and injection volume of each sample was 6 μL. Chromatograms were then integrated for quantification of oxidation.

[1] = H2O2 generation by free L-Trp upon light exposure, Amplex assay; type: physicochemical
Description: It was previously reported that L-Trp produced H2O2 via superoxide ion and in a sub-stoichiometric fashion while antibodies under similar conditions were producing catalytic amounts (Wentworth et al., Science 293(5536):1806-11 (2001); McCormick et al., Journal of the American Chemical Society 100:312-313 (1978)). To test the susceptibility of free L-Trp under pharmaceutically relevant conditions, such as under both ICH and ambient light conditions, formulations comprising 0.32 mM to 7.5 mM of L-Trp were exposed for 3 hours at 250 W/m^2 UV light and about 150 k lux visible light. Samples were taken and analyzed immediately via the Amplex assay to detect the amount of H2O2 generated under these conditions. […] When L-Trp was incubated with a combination of 50 mM NaN3 and 150 U superoxide dismutase (SOD) or SOD alone, significant amounts of H2O2 were still detected in the samples not containing NaN3.

For N[C@@H](Cc1c[nH]c2ccccc12)C(=O)O [L-Trp, L-tryptophan], the Fc oxidation (mAb1; 1 mM L-Trp, reference material and foil control about 8%) was “over 20%”, the Fab oxidation (mAb1; no excipient or 1 mM L-Trp, reference material and foil control about 2%) was ~9% and the “H2O2 generated upon light exposure” value ([1]; 0.32 mM to 7.5 mM L-Trp, 3 hours at 250 W/m^2 UV light and about 150 k lux visible light) was “large quantity of H2O2”. The “H2O2 generation in the presence of 50 mM sodium azide” value ([1]; 3 hours at 250 W/m^2 UV light, 50 mM sodium azide) was “reduced greatly”.
